Experimental data reported in patent publication US8759308B2, “RNAi probes targeting cancer-related proteins” (The University of British Columbia, priority 2002, dated 2014).
d = 2'-deoxy (DNA); r = 2'-OH (RNA)

Key:
[1] = test system: KH OS and U-2 OS cells; experiment: DXR effects in OS cells (TUNEL, protein expression); format: cell-based, human
Experimental: Sustained silencing of CLU gene expression in OS cells by siRNA results in significant sensitization to apoptosis induced by genotoxic and oxidative stress. Prior to CLU functional assays, we analyzed the DXR effects in OS cells since the drug-related reported effects vary in different cell-types (Gewritz et al., Biochem. Pharmacol. 57: 727-741 (1999)). As the DXR plasma concentration in treated patients fall into a range of 1-2 μM and decline into a range of 0.025-0.25 μM within 1 h (Muller et al, Cancer Chemother. Pharmacol., 32: 379-384 (1993)) cells were treated with 0.35 and 1 μM of DXR. To analyze the extent of the DXR-mediated cell death we scored apoptosis by TUNEL. Attached cells following drug treatment for 24 h underwent significant morphological changes as compared to non-treated control cells. […] On-going apoptosis is also apparent 24 h later, verifying that apoptosis is a dynamic process that continues even after DXR removal from the medium.

[2] = human, in vivo; cited from earlier work
[3] = test system: clusterin transcript; experiment: Clusterin transcript by Real Time PCR in PC3 cells; format: cell-based, human; details: 10, 50 or 100 nM, two days
Experimental: (§1) PC3 cells were transfected with siRNA at levels of 10, 50 or 100 nM or with 100 nM scrambled control. Two days after transfection, total RNA was extracted and the level of clusterin transcript was quantified by Real Time PCR.

[4] = test system: clusterin transcript; experiment: Clusterin transcript by Northern blot in PC3 cells; format: cell-based, human; details: all doses (10, 50 or 100 nM), two days
Experimental: PC3 cells were treated (1 pulse) with CLU-3 (Seq ID NOs. 5 and 6) or CLU-5 (Seq ID Nos 9 and 10) or with a scrambled control at levels of 10, 50 or 100 nM, or with oligoFECTAMINE™ only. After two days total RNA was extracted and analyzed for clusterin and GADPH by Northern blotting. Densitometric measurement was performed. FIG. 10 presents results of these measurements after normalization to GADPH.

[5] = test system: clusterin transcript; experiment: Clusterin mRNA by Northern blot in OVCAR3 cells; format: cell-based, human; details: 1, 10 or 50 nM, two days
Experimental: OVCAR3 ovarian cancer cells were treated once with 1, 10 or 50 nM CLU5, scrambled control or a vehicle only control. An untreated control was also run. After two days, total RNA was extracted and analyzed for clusterin and GAPDH mRNA by Northern blot.

[6] = test system: clusterin transcript; experiment: Clusterin transcript by Real Time PCR in A549 cells; format: cell-based, human; details: 10, 50 or 100 nM, two days
Experimental: as §1
The experiment of Example 9 was repeated using A549 cells in place of PC3 cells.

[7] = test system: clusterin; experiment: Clusterin Western blot in A549 cells; format: cell-based, human; details: 10, 50 and 100 nM
[8] = test system: clusterin; experiment: Clusterin Western blot in clusterin overexpressing LNCaP/T1 cells; format: cell-based, human; details: 10 nM, 1 pulse, three days
Experimental: Clusterin overexpressing LNCaP)/T1 cells were transfected (1 pulse) with 10 nM CLU-5 siRNA or scrambled control. Three days after treatment, the proteins were extracted and analyzed by Western blotting for clusterin.

[9] = test system: clusterin; experiment: Clusterin Western blot in PC3 cells; format: cell-based, human; details: 10, 50 and 100 nM
Experimental: 8 species of siRNA targeting clusterin were formed as double-stranded RNA from Seq. ID NOs. 1 and 2, 3 and 4, 5 and 6, 7 and 8, 9 and 10, 11 and 12, 13 and 14, and 15 and 16, and labeled as CLU1-CLU 8, respectively. PC3 cells were transfected with various doses (10, 50 and 100 nM) of the 8 species of siRNA or scrambled control. Three days after treatment, proteins were extracted and analyzed by Western blotting for clusterin levels (MW=40 and 60 kDa).
Densitometric measurements were performed after normalization to a vinculin control the blots for cells treated with CLU-5 (Seq ID Nos. 9 and 10). “Oligo” cells were treated with oligoFECTAMINE™ only.

[10] = test system: clusterin; experiment: Clusterin Western blot in MCF-7 cells; format: cell-based, human; details: 5 and 50 nM, three days
Experimental: MCF-7 cells were transfected with various doses (5 and 50 nM) of CLU-5 siRNA or scrambled control. Three days after treatment, proteins were extracted and analyzed by Western blotting for clusterin levels (MW=40 and 60 kDa).

[11] = test system: clusterin transcript; experiment: Clusterin mRNA by Northern blot in MCF-7 cells; format: cell-based, human; details: 5, 25 or 50 nM, two days
Experimental: MCF-7 human breast cancer cells were transfected with 5, 25 or 50 nM CLU-5 or a scrambled control, or with oligoFECTAMINE™ vehicle alone. Two days after transfection, RNA was extracted and analyzed for clusterin and GAPDH by Northern blotting.

[12] = test system: PC3 cells; experiment: PC3 cell viability with siRNA and Taxol, MTT assay; format: cell-based, human; details: 25 nM siRNA, then Taxol three days
Experimental: PC3 cells were treated once with 25 nM human clusterin siRNAs (CLU-3 and CLU-5), a scrambled control, or oligoFECTAMINE™ only. After two days of treatment, the medium was replaced with medium containing various concentrations of Taxol (Paclitaxel). After three days of incubation, cell viability was determined by MTT assay. FIG. 11 summarizes the results.

[13] = test system: clusterin transcript; experiment: Clusterin mRNA by Northern blot in MDA-MB 231 cells; format: cell-based, human; details: 5, 50 or 100 nM, two days
Experimental: MDA-MB 231 human breast cancer cells were transfected with 5, 50 or 100 nM CLU-5 or a scrambled control, or with oligoFECTAMINE™ vehicle alone. Two days after transfection, RNA was extracted and analyzed for clusterin and GAPDH by Northern blotting.

Compound	bcl-2 expression ([1]; KH OS and U-2 OS cells)	accumulation of p53, p21 and bax ([1]; OS cell lines)	PARP cleavage ([1]; OS cells after DXR treatment)	apoptosis by TUNEL ([1]; OS cells, 0.35 and 1 μM DXR, 24 h)	plasma concentration [2] [nM]	amount of clusterin transcript [3]	amount of clusterin transcript normalized to GADPH [4]	amount of clusterin transcript normalized to GAPDH [5]	amount of clusterin transcript [6]	clusterin by densitometry normalized to vinculin [7]	clusterin detected by Western blot [8]	clusterin by densitometry normalized to vinculin [9]	amount of clusterin (Western blot) ([9]; three days)	amount of clusterin protein relative to scrambled control [10]	amount of clusterin transcript normalized to GAPDH [11]	viable cells with siRNA plus Taxol [12]	amount of clusterin transcript normalized to GAPDH [13]
COc1cccc2c1C(=O)c1c(O)c3c(c(O)c1C2=O)C[C@@](O)(C(=O)CO)C[C@@H]3O[C@H]1C[C@H](N)[C@H](O)[C@H](C)O1 [DXR]	no altered expression	found only in U-2 OS cells	accompanied by PARP cleavage	a significant number of them are TUNEL positive	1000 to 2000	–	–	–	–	–	–	–	–	–	–	–	–
CLU-5: clusterin siRNA, double-stranded RNA from Seq. ID NOs. 9 and 10 (chain 1 AUGAUGAAGACUCUGCUGCTT; chain 2 GCAGCAGAGUCUUCAUCAUTT; sugars from the 5' end r19 d2, backbone not given here)	–	–	–	–	–	reduction in the amount of clusterin transcript	Reduction in the amount of clusterin transcript	Substantial dose dependent reduction	reduction in the amount of clusterin transcript	dose dependent response	No clusterin was detected	dose dependent response	best results	reduction in the amount of clusterin protein	Substantial dose-dependent reduction	worked in synergy	Substantial reduction
